Assay results as given in ChEMBL document CHEMBL4825740, “Novel Histone Deacetylase Inhibitors for Treating HIV Infection” (ACS Med Chem Lett, 2021).
pIC50: −log10 of the molar value.

Key:
Histone deacetylase 2 = Histone deacetylase 2 (Homo sapiens, UniProt Q92769); experiment: Inhibition of human recombinant FLAG-tagged HDAC2 expressed in Sf9 cells incubated for 30 mins by Fluor De Lys assay
Histone deacetylase 1 = Histone deacetylase 1 (Homo sapiens, UniProt Q13547); experiment: Inhibition of human recombinant FLAG-tagged HDAC1 expressed in HEK293F cells incubated for 30 mins by Fluor De Lys assay; format: cell-based
Histone deacetylase 1, sequence (Q13547 whole entry): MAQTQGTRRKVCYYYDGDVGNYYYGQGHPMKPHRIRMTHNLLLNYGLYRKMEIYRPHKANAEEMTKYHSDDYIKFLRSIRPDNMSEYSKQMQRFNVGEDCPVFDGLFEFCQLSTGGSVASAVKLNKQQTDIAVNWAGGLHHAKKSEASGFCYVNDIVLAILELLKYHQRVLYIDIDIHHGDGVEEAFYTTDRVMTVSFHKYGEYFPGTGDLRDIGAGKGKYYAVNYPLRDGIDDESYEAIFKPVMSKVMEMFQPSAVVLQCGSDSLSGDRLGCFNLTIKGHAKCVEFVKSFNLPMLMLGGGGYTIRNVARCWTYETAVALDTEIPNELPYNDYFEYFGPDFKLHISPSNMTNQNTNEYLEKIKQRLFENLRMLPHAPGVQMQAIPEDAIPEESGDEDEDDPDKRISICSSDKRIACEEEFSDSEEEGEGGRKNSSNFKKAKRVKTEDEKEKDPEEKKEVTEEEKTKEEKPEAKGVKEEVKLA

Histone deacetylase 3 = Histone deacetylase 3 (Homo sapiens, UniProt O15379); experiment: Inhibition of human recombinant FLAG-tagged HDAC3 expressed in HEK293F cells incubated for 30 mins by Fluor De Lys assay; format: cell-based
Histone deacetylase 3, sequence (O15379 whole entry): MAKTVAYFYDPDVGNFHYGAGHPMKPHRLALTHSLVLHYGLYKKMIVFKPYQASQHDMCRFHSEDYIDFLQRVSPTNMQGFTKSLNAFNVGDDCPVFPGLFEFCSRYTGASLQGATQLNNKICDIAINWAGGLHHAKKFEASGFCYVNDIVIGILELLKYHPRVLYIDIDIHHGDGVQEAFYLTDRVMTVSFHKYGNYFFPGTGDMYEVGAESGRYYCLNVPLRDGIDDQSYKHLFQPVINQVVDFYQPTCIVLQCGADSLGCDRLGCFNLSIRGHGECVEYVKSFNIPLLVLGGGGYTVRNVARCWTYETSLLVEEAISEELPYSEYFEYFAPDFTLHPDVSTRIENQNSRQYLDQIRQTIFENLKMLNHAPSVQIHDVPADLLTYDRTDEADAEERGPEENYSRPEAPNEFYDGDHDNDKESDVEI

Histone deacetylase 2, sequence (Q92769 whole entry): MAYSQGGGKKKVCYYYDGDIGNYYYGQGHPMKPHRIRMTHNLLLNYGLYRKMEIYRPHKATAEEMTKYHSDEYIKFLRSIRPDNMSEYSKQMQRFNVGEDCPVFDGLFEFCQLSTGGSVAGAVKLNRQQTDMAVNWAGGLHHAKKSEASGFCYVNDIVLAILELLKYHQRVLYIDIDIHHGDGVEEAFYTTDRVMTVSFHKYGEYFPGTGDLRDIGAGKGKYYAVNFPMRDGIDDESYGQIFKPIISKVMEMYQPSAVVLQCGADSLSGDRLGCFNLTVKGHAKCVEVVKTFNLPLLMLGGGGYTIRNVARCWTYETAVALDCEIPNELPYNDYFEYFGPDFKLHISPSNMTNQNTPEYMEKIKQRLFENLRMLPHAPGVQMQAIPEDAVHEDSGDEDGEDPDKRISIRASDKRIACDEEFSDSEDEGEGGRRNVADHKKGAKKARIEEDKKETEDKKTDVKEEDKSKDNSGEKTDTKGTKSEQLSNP

Row | pIC50 (Histone deacetylase 2) | pIC50 (Histone deacetylase 1) | pIC50 (Histone deacetylase 3) | SMILES
1 | 8.70 | 9.49 | – | CCC(=O)CCCCC[C@H](NC(=O)[C@H]1CC12CCN(C)CC2)c1ncc(-c2cc3ccc(N4CCCC4)nc3cc2OC)[nH]1
2 | – | > 8.82 | > 8.82 | CCC(=O)CCCCC[C@H](NC(=O)[C@H]1CC12CCN(CC)CC2)c1ncc(-c2cc3cccnc3cc2OC)o1
